Assay results taken from patent publication US20180170903A1, “PYRIDIN-3-YL ACETIC ACID DERIVATIVES AS INHIBITORS OF HUMAN IMMUNODEFICIENCY VIRUS REPLICATION” (ViiV HEALTHCARE UK (NO.5) LIMITED, priority 2015, published 2018).
Like-named read-outs stand apart in the source and are kept apart here.

System: NL-RLuc virus (recombinant HIV NL4-3 proviral clone with Renilla Luciferase) in MT-2 cells
Experiment: Inhibition of HIV Replication (NL-RLuc luciferase reporter virus, MT-2 cells)
Type: cell-based
Settings: MT2, 120 h
Excerpt: Inhibition of HIV Replication:
A recombinant NL-RLuc proviral clone was constructed in which a section of the nef gene from NL4-3 was replaced with the Renilla Luciferase gene. This virus is fully infectious and can undergo multiple cycles of replication in cell culture. In addition, the luciferous reporter provides a simple and easy method for quantitating the extent of virus growth and consequently, the antiviral activity of test compounds. The plasmid pNLRLuc contains the proviral NL-Rluc DNA cloned into pUC 18 at the PvuII site. The NL-RLuc virus was prepared by transfection of 293T cells with the plasmid pNLRLuc. Transfections were performed using the LipofectAMINE PLUS kit from Invitrogen (Carlsbad, Calif.) according to the manufacturer and the virus generated was titered in MT-2 cells. For susceptibility analyses, the titrated virus was used to infect MT-2 cells in the presence of compound, and after 5 days of incubation, cells were processed and quantitated for virus growth by the amount of expressed luciferase. Assay media was RPMI 1640 supplemented with 10% heat inactivated fetal bovine serum (FBS), 100 units/ml penicillin G/100 units/ml streptomycin, 10 mM HEPES buffer pH 7.55 and 2 mM L-glutamine. The results from at least 2 experiments were used to calculate the EC50 values. Luciferase was quantitated using the Dual Luciferase kit from Promega (Madison, Wis.). Susceptibility of viruses to compounds was determined by incubation in the presence of serial dilutions of the compound. The 50% effective concentration (EC50) was calculated by using the exponential form of the median effect equation where (Fa)=1/[1+(ED50/drug conc.)^m](Johnson V A, Byington R T. Infectivity Assay. In Techniques in HIV Research. ed. Aldovini A, Walker B D. 71-76. New York: Stockton Press. 1990). Activity equal to A refers to a compound having an EC50≤100 nM, while B and C denote compounds having an EC50 between 100 nM and 1 uM (B) or >1 uM (C).

COc1ccc(CCNCc2ccc(-c3c(C)nc(C)c([C@H](OC(C)(C)C)C(=O)O)c3N3CCC(C)(C)CC3)cc2)cc1 [Example 8, (S)-2-(tert-butoxy)-2-(4-(4,4-dimethylpiperidin-1-yl)-5-(4-(((4-methoxyphenethyl)amino)methyl)phenyl)-2,6-dimethylpyridin-3-yl)acetic acid]
EC50 (read-out: Activity): < 0.1 µM | EC50 (read-out: EC50 μM): 0.09 µM

Cc1nc(C)c([C@H](OC(C)(C)C)C(=O)O)c(N2CCC(C)(C)CC2)c1-c1ccc(CN2CCOCC2)cc1 [Example 2, (S)-2-(tert-Butoxy)-2-(4-(4,4-dimethylpiperidin-1-yl)-2,6-dimethyl-5-(4-(morpholinomethyl)phenyl)pyridin-3-yl)acetic acid]
EC50 (read-out: Activity): 0.1 to 1 µM | EC50 (read-out: EC50 μM): 0.113 µM

Cc1nc(C)c([C@H](OC(C)(C)C)C(=O)O)c(N2CCC(C)(C)CC2)c1-c1ccc(CNCC2CCCCC2)cc1 [Example 17, (S)-2-(tert-butoxy)-2-(5-(4-(((cyclohexylmethyl)amino)methyl)phenyl)-4-(4,4-dimethylpiperidin-1-yl)-2,6-dimethylpyridin-3-yl)acetic acid]
EC50 (read-out: Activity): 0.1 to 1 µM

Cc1nc(C)c([C@H](OC(C)(C)C)C(=O)O)c(N2CCC(C)(C)CC2)c1-c1ccc(CN(Cc2ccc(F)cc2)C(=O)c2ccccc2C(F)(F)F)cc1 [Example 39, (S)-2-(tert-butoxy)-2-(4-(4,4-dimethylpiperidin-1-yl)-5-(4-((N-(4-fluorobenzyl)-2-(trifluoromethyl)benzamido)methyl)phenyl)-2,6-dimethylpyridin-3-yl)acetic acid]
EC50 (read-out: Activity): < 0.1 µM

Cc1nc(C)c([C@H](OC(C)(C)C)C(=O)O)c(N2CCC(C)(C)CC2)c1-c1ccc(CSCc2ccc(F)cc2)cc1 [Example 52, (S)-2-(tert-Butoxy)-2-(4-(4,4-dimethylpiperidin-1-yl)-5-(4-(((4-fluorobenzyl)thio)methyl)phenyl)-2,6-dimethylpyridin-3-yl)acetic acid]
EC50 (read-out: Activity): < 0.1 µM

Cc1nc(C)c([C@H](OC(C)(C)C)C(=O)O)c(N2CCC(C)(C)CC2)c1-c1ccc(CN(Cc2ccc(F)cc2)C(=O)c2cccc(F)c2)cc1 [Example 41, (S)-2-(tert-butoxy)-2-(4-(4,4-dimethylpiperidin-1-yl)-5-(4-((3-fluoro-N-(4-fluorobenzyl)benzamido)methyl)phenyl)-2,6-dimethylpyridin-3-yl)acetic acid]
EC50 (read-out: Activity): < 0.1 µM | EC50 (read-out: EC50 μM): 0.015 µM

Cc1nc(C)c([C@H](OC(C)(C)C)C(=O)O)c(N2CCC(C)(C)CC2)c1-c1ccc(CN(Cc2ccc(F)cc2)C(=O)c2ccc(F)cc2)cc1 [Example 28, (S)-2-(tert-butoxy)-2-(4-(4,4-dimethylpiperidin-1-yl)-5-(4-((4-fluoro-N-(4-fluorobenzyl)benzamido)methyl)phenyl)-2,6-dimethylpyridin-3-yl)acetic acid]
EC50 (read-out: Activity): < 0.1 µM

Cc1nc(C)c([C@H](OC(C)(C)C)C(=O)O)c(N2CCC(C)(C)CC2)c1-c1ccc(CN(Cc2ccc(F)cc2)S(=O)(=O)c2ccccc2)cc1 [Example 36, (S)-2-(tert-butoxy)-2-(4-(4,4-dimethylpiperidin-1-yl)-5-(4-((N-(4-fluorobenzyl)phenylsulfonamido)methyl)phenyl)-2,6-dimethylpyridin-3-yl)acetic acid]
EC50 (read-out: Activity): < 0.1 µM

Cc1nc(C)c([C@H](OC(C)(C)C)C(=O)O)c(N2CCC(C)(C)CC2)c1-c1ccc(CN(Cc2ccc(F)cc2)CC2CCCO2)cc1 (stereo partly drawn) [Example 3, (2S)-2-(tert-Butoxy)-2-(4-(4,4-dimethylpiperidin-1-yl)-5-(4-(((4-fluorobenzyl) ((tetrahydrofuran-2-yl)methyl)amino)methyl)phenyl)-2,6-dimethylpyridin-3-yl)acetic acid]
EC50 (read-out: Activity): < 0.1 µM

COc1ccc(C(=O)N(Cc2ccc(F)cc2)Cc2ccc(-c3c(C)nc(C)c([C@H](OC(C)(C)C)C(=O)O)c3N3CCC(C)(C)CC3)cc2)cc1 [Example 45, (S)-2-(tert-butoxy)-2-(4-(4,4-dimethylpiperidin-1-yl)-5-(4-((N-(4-fluorobenzyl)-4-methoxybenzamido)methyl)phenyl)-2,6-dimethylpyridin-3-yl)acetic acid]
EC50 (read-out: Activity): < 0.1 µM

Cc1nc(C)c([C@H](OC(C)(C)C)C(=O)O)c(N2CCC(C)(C)CC2)c1-c1ccc(COC(C)(C)C)cc1 [Example 49, (S)-2-(tert-Butoxy)-2-(5-(4-(tert-butoxymethyl)phenyl)-4-(4,4-dimethylpiperidin-1-yl)-2,6-dimethylpyridin-3-yl)acetic acid]
EC50 (read-out: Activity): < 0.1 µM

Cc1nc(C)c([C@H](OC(C)(C)C)C(=O)O)c(N2CCC(C)(C)CC2)c1-c1ccc(CNCCC2CCCCC2)cc1 [Example 13, (S)-2-(tert-butoxy)-2-(5-(4-(((2-cyclohexylethyl)amino)methyl)phenyl)-4-(4,4-dimethylpiperidin-1-yl)-2,6-dimethylpyridin-3-yl)acetic acid]
EC50 (read-out: Activity): 0.1 to 1 µM

Cc1nc(C)c([C@H](OC(C)(C)C)C(=O)O)c(N2CCC(C)(C)CC2)c1-c1ccc(CNCc2ccc(F)cc2)cc1 [Example 4, (S)-2-(tert-butoxy)-2-(4-(4,4-dimethylpiperidin-1-yl)-5-(4-(((4-fluorobenzyl)amino)methyl)phenyl)-2,6-dimethylpyridin-3-yl)acetic acid]
EC50 (read-out: Activity): < 0.1 µM

COc1ccccc1C(=O)N(Cc1ccc(F)cc1)Cc1ccc(-c2c(C)nc(C)c([C@H](OC(C)(C)C)C(=O)O)c2N2CCC(C)(C)CC2)cc1 [Example 26, (S)-2-(tert-butoxy)-2-(4-(4,4-dimethylpiperidin-1-yl)-5-(4-((N-(4-fluorobenzyl)-2-methoxybenzamido)methyl)phenyl)-2,6-dimethylpyridin-3-yl)acetic acid]
EC50 (read-out: Activity): < 0.1 µM

COC(=O)N(Cc1ccc(F)cc1)Cc1ccc(-c2c(C)nc(C)c([C@H](OC(C)(C)C)C(=O)O)c2N2CCC(C)(C)CC2)cc1 [Example 32, (S)-2-(tert-butoxy)-2-(4-(4,4-dimethylpiperidin-1-yl)-5-(4-(((4-fluorobenzyl)(methoxycarbonyl)amino)methyl)phenyl)-2,6-dimethylpyridin-3-yl)acetic acid]
EC50 (read-out: Activity): < 0.1 µM

Cc1cc(OCc2ccc(-c3c(C)nc(C)c([C@H](OC(C)(C)C)C(=O)O)c3N3CCC(C)(C)CC3)cc2)ccc1Cl [Example 50, (S)-2-(tert-Butoxy)-2-(5-(4-((4-chloro-3-methylphenoxy)methyl)phenyl)-4-(4,4-dimethylpiperidin-1-yl)-2,6-dimethylpyridin-3-yl)acetic acid]
EC50 (read-out: Activity): < 0.1 µM

Cc1nc(C)c([C@H](OC(C)(C)C)C(=O)O)c(N2CCC(C)(C)CC2)c1-c1ccc(CN(Cc2ccc(F)cc2)C(=O)OCc2ccccc2)cc1 [Example 31, (S)-2-(5-(4-((((benzyloxy)carbonyl)(4-fluorobenzyl)amino)methyl)phenyl)-4-(4,4-dimethylpiperidin-1-yl)-2,6-dimethylpyridin-3-yl)-2-(tert-butoxy)acetic acid]
EC50 (read-out: Activity): < 0.1 µM

Cc1nc(C)c([C@H](OC(C)(C)C)C(=O)O)c(N2CCC(C)(C)CC2)c1-c1ccc(CN2CCc3ccccc3C2)cc1 [Example 53, (S)-2-(tert-Butoxy)-2-(5-(4-((3,4-dihydroisoquinolin-2(1H)-yl)methyl)phenyl)-4-(4,4-dimethylpiperidin-1-yl)-2,6-dimethylpyridin-3-yl)acetic acid]
EC50 (read-out: Activity): < 0.1 µM | EC50 (read-out: EC50 μM): 0.076 µM
